According to PubChem BioAssay (NCI):
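Values below derive from 48-hour exposures of cells grown in 96-well plates, with endpoints linearly interpolated between the two concentrations bracketing the appropriate inhibition level. Abbreviation: GI50, concentration required for 50% inhibition of growth. The concentration for full growth arrest is given as TGI.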

How the values were obtained:
Experiment in all cases: NCI tumour cell line growth inhibition, 48 h
786-0 renal = tested on: 786-0 renal
OVCAR-8 ovarian = tested on: OVCAR-8 ovarian
CAKI-1 renal = tested on: CAKI-1 renal
OVCAR-4 ovarian = tested on: OVCAR-4 ovarian
NCI-H23 lung = tested on: NCI-H23 lung
U251 CNS = tested on: U251 CNS
MOLT-4 leukemia = tested on: MOLT-4 leukemia
OVCAR-5 ovarian = tested on: OVCAR-5 ovarian
HCC-2998 colon = tested on: HCC-2998 colon
SW-620 colon = tested on: SW-620 colon

| SMILES | TGI (786-0 renal) [µM] | TGI (OVCAR-8 ovarian) [µM] | TGI (CAKI-1 renal) [µM] | TGI (OVCAR-4 ovarian) [µM] | TGI (NCI-H23 lung) [µM] | TGI (U251 CNS) [µM] | TGI (MOLT-4 leukemia) [µM] | TGI (OVCAR-5 ovarian) [µM] | TGI (HCC-2998 colon) [µM] | TGI (SW-620 colon) [µM] | GI50 (786-0 renal) [µM] | GI50 (OVCAR-8 ovarian) [µM] | GI50 (CAKI-1 renal) [µM] | GI50 (OVCAR-4 ovarian) [µM] | GI50 (NCI-H23 lung) [µM] | GI50 (U251 CNS) [µM] | GI50 (MOLT-4 leukemia) [µM] | GI50 (OVCAR-5 ovarian) [µM] | GI50 (HCC-2998 colon) [µM] | GI50 (SW-620 colon) [µM] |
| --- | --- | --- | --- | --- | --- | --- | --- | --- | --- | --- | --- | --- | --- | --- | --- | --- | --- | --- | --- | --- |
| CC(=O)c1sc(-c2nc(C)c(C(=O)/C=C\c3ccc(/C=C\C(=O)c4sc(-c5nc(C)c(C(C)=O)s5)nc4C)cc3)s2)nc1C | > 100 | > 100 | > 100 | > 100 | > 100 | > 100 | > 100 | > 100 | > 100 | > 100 | – | – | – | – | – | – | – | – | – | – |
| CC1(C)O/C(=C\c2ccccc2)C(=O)/C(=C/c2ccccc2)O1 | > 100 | > 100 | > 100 | > 100 | > 100 | > 100 | 43.9 | 60.8 | – | > 100 | – | – | – | – | – | – | – | – | – | – |
| O=[N+]([O-])c1ccc2c(c1)C(c1ccccc1Cl)=Nc1cn[nH]c1N2 | > 25 | > 25 | > 25 | > 25 | > 25 | > 25 | > 25 | > 25 | > 25 | > 25 | 11.8 | 17.9 | 12.7 | 12.5 | > 25 | 9.91 | 10.5 | > 25 | 24.7 | 15.8 |
| CC(C)S(=O)(=O)c1ccccc1Nc1nc(Nc2cccc(NC(=O)CN)c2)ncc1Cl | 2.57 | 6.97 | 7.25 | 5.05 | 1.03 | 2.86 | 2.14 | 9.27 | 4.12 | 4.09 | 0.235 | 0.286 | 0.2 | 0.336 | 0.208 | 0.179 | 0.231 | 0.183 | 0.399 | 0.0394 |
| CN[C@@H](C)[C@H](NC)c1ccccc1 | > 100 | > 100 | > 100 | – | > 100 | > 100 | > 100 | – | > 100 | > 100 | – | – | – | – | – | – | – | – | – | – |
| CCOC(=N)CC(=O)Nc1cccc(C)c1C | > 100 | > 100 | > 100 | > 100 | > 100 | > 100 | 7.46 | > 100 | > 100 | > 100 | – | – | – | – | – | – | – | – | – | – |
| CCCCC1(CN2CCOCC2)S/C(=N/c2nc(CC(=O)OCC)cs2)NC1=O (stereo not given) | > 100 | > 100 | > 100 | > 100 | – | > 100 | > 100 | > 100 | > 100 | > 100 | 37.9 | 33.9 | 29.9 | 33 | – | 33.9 | 27.7 | 35.4 | 35.9 | 35.9 |
| Cc1cc(NS(=O)(=O)c2ccc(Nc3c4ccccc4nc4c(C(=O)NCCN(C)C)cccc34)cc2)no1 | 19.7 | > 100 | – | 57.7 | > 100 | > 100 | – | > 100 | 27 | > 100 | – | – | – | – | – | – | – | – | – | – |
| Cc1cc2c(cc1Cl)SC(=Nc1ccc(Cl)cc1)N(S(=O)(=O)c1ccccc1)S2(=O)=O | 18.1 | 30.8 | 23.4 | 64.3 | 5.96 | 19.5 | – | 18.7 | – | 17.4 | 4.54 | 12.4 | 5.37 | 11 | 1.55 | 5.96 | – | 4.43 | – | 5.63 |
| N#CC(=NCCO)C1=C(O)c2ccccc2C1=O | > 100 | > 100 | > 100 | > 100 | > 100 | > 100 | > 100 | > 100 | – | > 100 | – | – | – | – | – | – | – | – | – | – |
| O=C(COc1ccc(/C=C2\CSc3ccccc3C2=O)cc1)Nc1nccs1 | 27 | 32.8 | 25.3 | 72.3 | 24.3 | 19.5 | – | 32.8 | 17.1 | 7.12 | 14 | 7.76 | 12.8 | 18.9 | 11.7 | 6.93 | – | 18.2 | 4.03 | 2.7 |
| Nc1ccn(C2(CO)C=C(CO)C(O)C2O)c(=O)n1 (stereo not given) | > 25.8 | > 25.8 | > 25.8 | > 25.8 | – | > 25.8 | > 25.8 | – | > 25.8 | > 25.8 | – | – | – | – | – | – | – | – | – | – |
| O=S1OC2(c3ccccc3-c3ccccc32)c2ccccc21 (stereo not given) | > 100 | > 100 | – | > 100 | > 100 | > 100 | > 100 | > 100 | > 100 | > 100 | – | – | – | – | – | – | – | – | – | – |
| C1C[OH+]CCNCC[OH+]CC[OH+]CCN1.[Cl-].[Pt+4] | > 100 | > 100 | > 100 | > 100 | > 100 | > 100 | > 100 | – | > 100 | > 100 | > 100 | > 100 | > 100 | > 100 | > 100 | > 100 | > 100 | – | > 100 | > 100 |
| C=C1C(=O)O[C@H]2/C=C(/C)C3=CC(=O)[C@@](C)(C[C@@H](OC(=O)/C(C)=C\C)C12)O3 (stereo not given in full) | 2.22 | 3.94 | 0.432 | > 26.5 | 10.3 | 9.48 | 6.01 | 6.19 | 3.28 | – | – | – | – | – | – | – | – | – | – | – |
| C[C@]12CC[C@H](O)C[C@H]1CC[C@@H]1[C@@H]2CC[C@]2(C)[C@@H](C3=CC(=O)OC3)CC[C@]12O | 0.142 | 1.07 | 0.18 | 0.226 | – | 1.52 | 0.0537 | 1.93 | 0.675 | 1.57 | 0.0337 | – | – | 0.0389 | – | – | – | – | – | – |
| N=C(N)SCc1cccc(-c2nc3ccccc3c(=O)o2)c1 | > 100 | > 100 | > 100 | > 100 | > 100 | > 100 | – | > 100 | > 100 | > 100 | – | – | – | – | – | – | – | – | – | – |
